Results as given in patent publication US12097202B2 (Kadmon Corporation, LLC, priority 2022, dated 2024).

What was measured:
[1] = tested on: rats; assay: General toxicology studies in rats; type: in vivo, rat
[2] = target: P-gp (Homo sapiens, UniProt P08183); assay: In vitro transporter study, P-gp; type: in vitro ADME
[3] = tested on: rats; assay: Combined male and female rat fertility study; type: in vivo; details: oral
Source text: In a combined male and female rat fertility study, belumosudil-treated male animals were mated with untreated females, or untreated males were mated with belumosudil-treated females.

[4] = target: human serum albumin (Homo sapiens, UniProt P02768); assay: In vitro protein binding, human serum albumin; type: in vitro ADME
human serum albumin, sequence (P02768 25-609): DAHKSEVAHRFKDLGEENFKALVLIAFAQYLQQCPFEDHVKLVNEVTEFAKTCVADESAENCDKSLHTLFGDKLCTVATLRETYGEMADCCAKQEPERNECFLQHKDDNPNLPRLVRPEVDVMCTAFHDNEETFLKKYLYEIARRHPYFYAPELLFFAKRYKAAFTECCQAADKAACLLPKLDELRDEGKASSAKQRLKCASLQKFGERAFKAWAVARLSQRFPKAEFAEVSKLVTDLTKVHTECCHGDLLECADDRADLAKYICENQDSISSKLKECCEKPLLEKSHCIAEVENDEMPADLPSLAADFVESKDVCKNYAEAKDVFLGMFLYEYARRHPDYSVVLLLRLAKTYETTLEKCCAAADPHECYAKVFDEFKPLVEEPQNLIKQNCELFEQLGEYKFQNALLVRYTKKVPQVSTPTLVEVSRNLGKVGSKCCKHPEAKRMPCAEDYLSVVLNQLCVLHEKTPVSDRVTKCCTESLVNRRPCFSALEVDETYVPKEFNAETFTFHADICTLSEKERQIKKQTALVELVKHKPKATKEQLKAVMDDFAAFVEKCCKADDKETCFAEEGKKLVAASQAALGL

[5] = Clinical pharmacokinetics in chronic GVHD patients; type: in vivo, human
[6] = tested on: dogs; assay: General toxicology studies in dogs; type: in vivo, dog
[7] = target: T1, CYP2D6 (Homo sapiens, UniProt P10635); assay: In vitro enzyme inhibition, CYP2D6; type: in vitro ADME
T1 sequence (P10635 whole entry): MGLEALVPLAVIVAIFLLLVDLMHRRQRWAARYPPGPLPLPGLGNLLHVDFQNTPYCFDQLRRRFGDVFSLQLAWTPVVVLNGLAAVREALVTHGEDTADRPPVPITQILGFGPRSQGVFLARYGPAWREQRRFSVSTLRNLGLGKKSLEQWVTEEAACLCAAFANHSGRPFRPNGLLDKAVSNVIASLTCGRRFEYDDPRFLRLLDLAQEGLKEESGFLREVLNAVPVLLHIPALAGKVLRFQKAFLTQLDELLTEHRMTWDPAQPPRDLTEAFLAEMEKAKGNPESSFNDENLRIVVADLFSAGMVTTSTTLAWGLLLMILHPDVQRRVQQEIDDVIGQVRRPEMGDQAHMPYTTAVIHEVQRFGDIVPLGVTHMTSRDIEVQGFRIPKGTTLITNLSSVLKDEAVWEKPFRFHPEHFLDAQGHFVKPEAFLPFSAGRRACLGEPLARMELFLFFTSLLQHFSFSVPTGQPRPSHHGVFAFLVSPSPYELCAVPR

[8] = Clinical drug interaction studies, effects of other drugs on belumosudil in healthy subjects; type: in vivo, human
[9] = target: T2, OATP1B1 (Homo sapiens, UniProt Q9Y6L6); assay: In vitro transporter study, OATP1B1; type: in vitro ADME; details: at clinically relevant concentrations
T2 sequence (Q9Y6L6 1-691): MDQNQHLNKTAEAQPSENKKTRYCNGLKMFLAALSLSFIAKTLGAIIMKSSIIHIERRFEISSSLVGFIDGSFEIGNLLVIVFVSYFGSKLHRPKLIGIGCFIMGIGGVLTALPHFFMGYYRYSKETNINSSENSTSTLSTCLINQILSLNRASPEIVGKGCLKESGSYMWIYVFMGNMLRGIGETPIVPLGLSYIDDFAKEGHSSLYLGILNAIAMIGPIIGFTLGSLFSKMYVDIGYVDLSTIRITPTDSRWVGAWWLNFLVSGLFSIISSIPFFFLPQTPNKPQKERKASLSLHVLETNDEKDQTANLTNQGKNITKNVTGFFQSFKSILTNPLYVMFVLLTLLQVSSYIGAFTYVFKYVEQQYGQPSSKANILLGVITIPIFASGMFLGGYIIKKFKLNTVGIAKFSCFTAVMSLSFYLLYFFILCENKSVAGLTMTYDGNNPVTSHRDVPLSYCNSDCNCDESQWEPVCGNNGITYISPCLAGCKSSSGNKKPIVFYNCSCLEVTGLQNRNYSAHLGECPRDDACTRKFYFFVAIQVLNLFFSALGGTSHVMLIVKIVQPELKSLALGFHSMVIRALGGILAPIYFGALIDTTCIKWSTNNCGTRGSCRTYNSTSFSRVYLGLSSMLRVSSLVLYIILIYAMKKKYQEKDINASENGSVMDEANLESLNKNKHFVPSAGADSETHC

[10] = target: T3, BCRP (Homo sapiens, UniProt Q9UNQ0); assay: In vitro transporter study, BCRP; type: in vitro ADME; details: at clinically relevant concentrations
T3 sequence (Q9UNQ0 1-655): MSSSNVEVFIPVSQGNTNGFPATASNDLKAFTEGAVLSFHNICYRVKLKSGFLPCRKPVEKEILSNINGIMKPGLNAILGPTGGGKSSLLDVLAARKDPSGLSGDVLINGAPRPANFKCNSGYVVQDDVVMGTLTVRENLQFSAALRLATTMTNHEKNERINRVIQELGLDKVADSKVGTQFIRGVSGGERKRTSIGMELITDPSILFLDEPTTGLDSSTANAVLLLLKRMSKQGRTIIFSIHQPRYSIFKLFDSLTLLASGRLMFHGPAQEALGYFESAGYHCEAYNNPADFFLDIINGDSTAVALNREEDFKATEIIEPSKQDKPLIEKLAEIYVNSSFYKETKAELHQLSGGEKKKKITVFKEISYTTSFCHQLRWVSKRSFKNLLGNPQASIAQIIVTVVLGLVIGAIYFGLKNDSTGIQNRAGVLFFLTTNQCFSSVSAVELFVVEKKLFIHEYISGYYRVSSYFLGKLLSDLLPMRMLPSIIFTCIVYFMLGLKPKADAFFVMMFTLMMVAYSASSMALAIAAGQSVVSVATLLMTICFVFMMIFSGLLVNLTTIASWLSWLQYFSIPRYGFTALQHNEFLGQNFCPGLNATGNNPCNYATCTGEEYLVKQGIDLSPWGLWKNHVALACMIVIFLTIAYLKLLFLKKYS

[11] = tested on: patients with chronic GVHD; details: human, in vivo;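 also: allogeneic HCT recipients aged ≥12 years with persistent cGVHD after two to five earlier systemic treatment lines, responses judged by site investigators, 12-month analysis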
Source text: Concomitant treatment with supportive care therapies for chronic GVHD was permitted. […] Initiation of new systemic chronic GVHD therapy while on study was not permitted.
Eligible subjects were allogeneic hematopoietic cell transplant recipients aged ≥12 years with persistent cGVHD manifestations after receiving 2 to 5 prior systemic lines of therapy. Subjects were required to be receiving stable corticosteroid therapy for 2 weeks prior to screening and to have a Karnofsky or Lansky Performance Status Scale score≥60. Certain concurrent immunosuppressive medications were allowed because drug-drug interactions were not anticipated.
Randomization was stratified (1:1) by cGVHD severity and prior exposure to ibrutinib.
All responses were assessed by the study site investigators. Secondary end points included duration of response (DOR), time to response, changes in LSS summary score, failure-free survival (FFS), corticosteroid dose reductions, and overall survival (OS). DOR was measured from the time of initial PR or CR until documented progression from best response of cGVHD, time from initial response to start of additional systemic cGVHD therapy, or death. The 7-day LSS summary score was calculated based on the developer recommendations and was compared with the score from baseline; an improvement ≥7 points was considered clinically meaningful. […] Relative dose intensity (RDI) was used as a surrogate measure of drug tolerability and was defined as actual dose intensity/planned dose intensity, where dose intensity was defined as the cumulative dose over the duration of exposure (mg/d). Actual dose intensity captured the sum of actual doses received over the duration of exposure and incorporated dose reductions and/or interruptions.
The Hochberg procedure was used for multiplicity adjustment for the primary end point of best ORR. […] CI was calculated using the Clopper-Pearson interval (exact) method.

[12] = target: T4, CYP1A2 (Homo sapiens, UniProt P05177); assay: In vitro enzyme inhibition, CYP1A2; type: in vitro ADME
T4 sequence (P05177 1-516): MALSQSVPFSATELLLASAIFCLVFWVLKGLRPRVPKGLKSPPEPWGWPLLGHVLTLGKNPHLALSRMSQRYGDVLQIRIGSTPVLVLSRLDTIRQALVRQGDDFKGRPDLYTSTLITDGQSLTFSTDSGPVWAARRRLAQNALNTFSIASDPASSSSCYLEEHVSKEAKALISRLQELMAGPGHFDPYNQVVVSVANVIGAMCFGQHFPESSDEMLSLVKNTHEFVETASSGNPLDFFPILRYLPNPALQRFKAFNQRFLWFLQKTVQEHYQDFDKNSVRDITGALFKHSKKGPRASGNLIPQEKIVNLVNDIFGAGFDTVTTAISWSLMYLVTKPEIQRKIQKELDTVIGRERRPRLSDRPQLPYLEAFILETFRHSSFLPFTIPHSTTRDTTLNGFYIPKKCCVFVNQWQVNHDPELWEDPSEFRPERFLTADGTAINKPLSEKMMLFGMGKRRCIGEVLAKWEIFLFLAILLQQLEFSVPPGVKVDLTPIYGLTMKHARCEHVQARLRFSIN

[13] = tested on: bacterial mutagenicity (Ames); assay: in vitro bacterial mutagenicity (Ames) assay; type: cell-based
[14] = target: T1, CYP2D6; assay: In vitro metabolism by CYP2D6; type: in vitro ADME
[15] = tested on: human peripheral blood lymphocytes (HPBL); assay: in vitro chromosome aberration assay; type: cell-based

P-gp, sequence (P08183 whole entry): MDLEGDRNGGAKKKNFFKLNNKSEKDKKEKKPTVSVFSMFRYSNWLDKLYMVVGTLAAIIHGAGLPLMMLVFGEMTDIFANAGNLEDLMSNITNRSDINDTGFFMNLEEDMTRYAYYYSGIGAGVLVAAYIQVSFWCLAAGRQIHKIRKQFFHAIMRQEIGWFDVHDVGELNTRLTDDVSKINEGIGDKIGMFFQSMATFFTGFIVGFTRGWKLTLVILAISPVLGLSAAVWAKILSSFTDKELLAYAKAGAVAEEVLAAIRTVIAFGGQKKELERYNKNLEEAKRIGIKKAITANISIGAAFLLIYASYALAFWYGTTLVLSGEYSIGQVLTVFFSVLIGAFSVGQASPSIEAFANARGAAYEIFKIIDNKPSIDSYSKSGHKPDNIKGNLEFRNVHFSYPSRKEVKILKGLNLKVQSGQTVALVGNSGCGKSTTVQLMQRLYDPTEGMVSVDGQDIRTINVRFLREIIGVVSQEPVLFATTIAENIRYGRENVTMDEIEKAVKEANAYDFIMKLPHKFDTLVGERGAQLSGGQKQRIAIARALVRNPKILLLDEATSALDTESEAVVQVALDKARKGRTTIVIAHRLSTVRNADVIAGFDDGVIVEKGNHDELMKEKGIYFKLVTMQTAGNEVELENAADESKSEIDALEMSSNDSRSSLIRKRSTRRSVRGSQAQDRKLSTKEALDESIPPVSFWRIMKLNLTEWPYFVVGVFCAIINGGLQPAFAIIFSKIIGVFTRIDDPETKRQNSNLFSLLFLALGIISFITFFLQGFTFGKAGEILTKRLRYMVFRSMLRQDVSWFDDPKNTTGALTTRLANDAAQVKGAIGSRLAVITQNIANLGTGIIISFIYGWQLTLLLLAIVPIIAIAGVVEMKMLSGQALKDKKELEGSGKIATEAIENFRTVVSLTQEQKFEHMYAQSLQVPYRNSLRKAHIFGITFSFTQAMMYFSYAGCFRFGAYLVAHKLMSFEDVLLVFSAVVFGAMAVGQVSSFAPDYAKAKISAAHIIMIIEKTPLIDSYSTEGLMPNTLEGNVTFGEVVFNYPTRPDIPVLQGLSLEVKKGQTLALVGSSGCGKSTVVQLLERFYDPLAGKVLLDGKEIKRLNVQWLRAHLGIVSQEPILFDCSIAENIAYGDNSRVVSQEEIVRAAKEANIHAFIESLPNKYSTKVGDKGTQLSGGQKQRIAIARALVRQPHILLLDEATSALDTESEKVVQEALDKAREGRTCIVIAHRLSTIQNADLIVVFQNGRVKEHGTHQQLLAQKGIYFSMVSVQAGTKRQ

## CC(C)NC(=O)COc1cccc(-c2nc(Nc3ccc4[nH]ncc4c3)c3ccccc3n2)c1 [belumosudil, 2-{3-[4-(1H-indazol-5-ylamino)-2-quinazolinyl]phenoxy}-N-(propan-2-yl) acetamide]
[1]
  dose with decreased follicular development in ovaries: 275 mg/kg/day
[2]
  P-gp substrate status: substrate of P-gp
[2]; at clinically relevant concentrations
  inhibition of P-gp: inhibits
[3]
  dose with adverse fertility findings (pre- or post-implantation loss, fewer viable embryos, abnormal sperm, testes/epididymis changes, reduced fertility): 275 mg/kg/day
[4]
  binding to human serum albumin: 99.9%
[5]; dosage range of 200 and 400 mg
  increase of Cmax and AUC with dose: approximately proportional
[5]; human, in vivo
  effect of age (18 to 77 years), sex, weight (38.6 to 143 kg), mild to moderate renal impairment on pharmacokinetics: No clinically significant differences
[6]
  dose with spermatozoa degeneration: 35 mg/kg/day
[7]
  inhibition of CYP2D6: inhibitor
[8]
  decrease of belumosudil AUC with omeprazole: 47%
  decrease of belumosudil AUC with rabeprazole: 80%
  decrease of belumosudil AUC with rifampin: 72%
  decrease of belumosudil Cmax with omeprazole: 68%
  decrease of belumosudil Cmax with rabeprazole: 87%
  decrease of belumosudil Cmax with rifampin: 59%
  effect of itraconazole (strong CYP3A inhibitor) on belumosudil exposure: no clinically meaningful effect
[9]
  inhibition of OATP1B1: inhibits
[10]
  inhibition of BCRP: inhibits
[11]
  Upper respiratory tract infection: (27) %
[12]
  inhibition of CYP1A2: inhibitor
[13]
  genotoxicity, bacterial mutagenicity (Ames) assay: not genotoxic
[14]
  metabolism by CYP2D6: to a lesser extent
[15]
  genotoxicity, chromosome aberration assay: not genotoxic
